Measurements: article PMC4296562 (Analytical biochemistry, 2014)

Legend:
MurX [1] = biological target: T1, MurX (Mycobacterium tuberculosis, UniProt P9WMW7); type: biochemical; conditions: for MurX inhibition (%) 0.1 μM: inhibitor 0.1 μM; for MurX inhibition (%) 0.1 μM / MurX inhibition (%) 1 μM / MurX inhibition (%) 10 μM / MurX inhibition (%) 100 μM: 2 75 μM, neryl phosphate 6, P-60, 26 °C, 3h; for MurX inhibition (%) 1 μM: inhibitor 1 μM; for MurX inhibition (%) 10 μM: inhibitor 10 μM; for MurX inhibition (%) 100 μM: inhibitor 100 μM; for IC50: neryl phosphate assay, obtained three times, ± standard error of the mean
T1 sequence (P9WMW7 whole entry): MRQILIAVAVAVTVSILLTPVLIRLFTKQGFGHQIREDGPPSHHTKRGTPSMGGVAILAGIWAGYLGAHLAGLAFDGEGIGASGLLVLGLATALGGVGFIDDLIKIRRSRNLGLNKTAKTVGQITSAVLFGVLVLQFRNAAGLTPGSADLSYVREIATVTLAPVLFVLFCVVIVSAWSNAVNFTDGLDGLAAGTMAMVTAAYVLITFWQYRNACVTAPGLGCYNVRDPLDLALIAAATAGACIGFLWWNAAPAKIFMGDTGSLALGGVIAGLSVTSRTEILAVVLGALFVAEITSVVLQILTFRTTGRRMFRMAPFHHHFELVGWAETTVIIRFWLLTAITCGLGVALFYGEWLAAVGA

MraY-MurG = conditions: no reference given; cited from earlier work
MurX [2] = biological target: T1, MurX
Water-solubility = type: physicochemical

Compound	MurX inhibition (%) 0.1 μM (MurX [1]) [%]	MurX inhibition (%) 1 μM (MurX [1]) [%]	MurX inhibition (%) 10 μM (MurX [1]) [%]	MurX inhibition (%) 100 μM (MurX [1]) [%]	further results
CO[C@H]1[C@@H](O)[C@H](n2ccc(=O)[nH]c2=O)O[C@@H]1[C@@H](O[C@H]1OC(C(=O)N[C@H]2CCCCNC2=O)=C[C@H](O)[C@@H]1O)C(N)=O [Capuramycin (7), Capuramycin]	36.6	88.4	100	100	
CN[C@H](CC(C)C)C(=O)N[C@H]1C(=O)N[C@@H](CC(N)=O)C(=O)N[C@H]2C(=O)N[C@H]3C(=O)N[C@H](C(=O)N[C@H](C(=O)O)c4cc(O)cc(O)c4-c4cc3ccc4O)[C@H](O)c3ccc(c(Cl)c3)Oc3cc2cc(c3O[C@@H]2O[C@H](CO)[C@@H](O)[C@H](O)[C@H]2O[C@H]2C[C@](C)(N)[C@H](O)[C@H](C)O2)Oc2ccc(cc2Cl)[C@H]1O [Vancomycin]	0	0	0	0	MurX inhibitory activity (MurX [1]; even at 100 μM concentrations): did not inhibit MurX; activity in MraY-MurG coupled assays (MraY-MurG): good activity
CC(C)=CCC/C(C)=C\COP(=O)(O)O [compound 6, neryl phosphate]					IC50 (MurX [1]): 152 nM
N-glycolyl Park’s nucleotide-N^ε-dansylthiourea [compound 1]					Km (MurX [2]): 18.1 µM
Park’s nucleotide-N^ε-dansylthiourea [compound 2]					Km (MurX [2]): 17.9 µM; Vmax for neryl-lipid I synthesis by MurX (MurX [2]): 0.00269 µM/s
Tunicamycin [Tunicamycin (9)]	9	42	72	72	IC50 (MurX [1]): 2730 ± 138 nM
neryl-lipid I-N^ε-dansylthiourea [compound 5]					water-solubility (Water-solubility): > 50 µg/mL
